Measured values taken from US20250066290A1, “DHODH INHIBITORS CONTAINING A CARBOXYLIC ACID BIOISOSTERE” (IMMUNIC AG, priority 2021, published 2025).
Like-named read-outs stand apart in the source and are kept apart here.

Experiments:
[1] = molecular target: N-terminally truncated recombinant hDHODH enzyme (Homo sapiens, UniProt Q02127); assay: biochemical; type: biochemical
Experimental: Briefly, the hDHODH concentration was adjusted in a way that an average slope of approximately 0.2 AU/min served as the positive control (e.g. without inhibitor). The standard assay mixture contained 60 μM 2,6-dichloroindophenol, 50 μM decylubiquinone and 100 μM dihydroorotate. The hDHODH enzyme with or without at least six different concentrations of the compounds was added and measurements were performed in 50 mM TrisHCl, 150 mM KCl and 0.1% Triton X-100 at pH 8.0 and at 30° C. The reaction was started by adding dihydroorotate and measuring the absorption at 600 nm for 2 min. For the determination of the IC50 values, each data point was recorded in triplicate. […].

[2] = system: SARS-CoV-2; assay: SARS-CoV-2 viral replication (YFP) assay; type: cell-based; details: Severe acute respiratory syndrome coronavirus 2, read-out: EC50 range
[3] = human DHODH assay, read-out: IC50 range

Chain of N-terminally truncated recombinant hDHODH enzyme (Q02127 whole entry, looked up, the tested form may be a part): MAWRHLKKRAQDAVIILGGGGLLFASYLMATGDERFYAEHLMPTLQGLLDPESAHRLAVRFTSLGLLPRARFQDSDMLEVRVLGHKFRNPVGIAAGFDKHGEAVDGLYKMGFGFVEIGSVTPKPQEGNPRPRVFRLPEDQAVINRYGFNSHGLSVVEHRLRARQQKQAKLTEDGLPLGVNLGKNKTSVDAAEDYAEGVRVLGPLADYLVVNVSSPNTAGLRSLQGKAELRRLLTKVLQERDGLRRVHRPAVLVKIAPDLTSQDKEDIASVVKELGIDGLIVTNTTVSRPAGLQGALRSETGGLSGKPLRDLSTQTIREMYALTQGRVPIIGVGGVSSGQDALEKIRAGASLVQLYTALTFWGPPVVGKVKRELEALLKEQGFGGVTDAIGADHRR

Structure (SMILES) | IC50 [1] [nM] | EC50 [2] [nM] | IC50 [1, 3] [nM] | IC50 ([1]; matched pair comparison, read-out: DHODH IC50) [nM]
[2H]C([2H])([2H])Oc1cccc(-c2cc(F)c(N(C)C(=O)C3=C(C(=O)NOC)CCC3)c(F)c2)c1 [Example 13, N1-(3,5-Difluoro-3′-(methoxy-d3)-[1,1′-biphenyl]-4-yl)-N2-methoxy-N1-methylcyclopent-1-ene-1,2-dicarboxamide] | > 10000 | 10000 to 25000 | – | –
[2H]C([2H])([2H])ONC(=O)c1cscc1C(=O)Nc1c(F)c(F)c(-c2cccc(OC([2H])([2H])[2H])c2)c(F)c1F [4/31] | – | < 1000 | < 100 | –
[2H]C([2H])([2H])Oc1cccc(-c2ccc(NC(=O)C3=C(C(=O)NOC)CCC3)c(F)c2)c1 [5/8] | 1000 to 10000 | – | – | –
[2H]C([2H])([2H])Oc1cccc(-c2cc(F)c(NC(=O)C3=C(C(=O)NS(=O)(=O)C4(C)CC4)CCC3)c(F)c2)c1 [1/2] | – | 10000 to 25000 | > 10000 | –
[2H]C([2H])([2H])Oc1cccc(-c2cc(F)c(NC(=O)C3=C(C(=O)NOC)CCC3)c(C#N)c2)c1 [8/3] | 1000 to 10000 | < 10000 | – | –
[2H]C([2H])([2H])Oc1cccc(-c2c(F)c(F)c(NC(=O)c3occc3C(=O)NOC)c(F)c2F)c1 [9/8] | – | < 1000 | < 100 | –
[2H]C([2H])([2H])Oc1ccccc1-c1c(F)c(F)c(NC(=O)C2=C(C(=O)NS(C)(=O)=O)CCC2)c(F)c1F [1/9] | – | – | < 100 | –
[2H]C([2H])([2H])Oc1ccccc1-c1c(F)c(F)c(NC(=O)C2=C(C(=O)NOC)COC2)c(F)c1F [5/11] | – | – | < 100 | –
[2H]C([2H])([2H])Oc1cccc(-c2c(F)c(F)c(NC(=O)c3cc(F)sc3C(=O)NOC)c(F)c2F)c1 [16/2] | – | – | < 100 | –
CONC(=O)C1=C(C(=O)Nc2c(F)cc(-c3cccc4ocnc34)cc2F)CCC1 [4/14] | 1000 to 10000 | < 10000 | – | –
[2H]C([2H])([2H])Oc1cccc(-c2c(F)c(F)c(NC(=O)c3cocc3C(=O)NOC)c(F)c2F)c1 [Example 16/1] | – | < 1000 | < 100 | –
[2H]C([2H])([2H])Oc1cccc(-c2ccc(NC(=O)c3ccsc3C(=O)NOC)c(F)c2F)c1 [9/4] | – | < 1000 | < 100 | –
[2H]C([2H])([2H])Oc1cccc(-c2c(F)c(F)c(NC(=O)C3=C(C(=O)NOCCO)COC3)c(F)c2F)c1 [5/6] | 100 to 1000 | < 10000 | – | –
[2H]C([2H])([2H])ONC(=O)c1cscc1C(=O)Nc1c(F)c(F)c(-c2ccccc2OC([2H])([2H])[2H])c(F)c1F [4/32] | – | < 1000 | < 100 | –
[2H]C([2H])([2H])Oc1cccc(-c2cc(F)c(NC(=O)C3=C(C(=O)NC#N)CCC3)c(F)c2)c1 [4/15] | – | 10000 to 25000 | – | –
[2H]C([2H])([2H])Oc1cccc(-c2cc(F)c(NC(=O)C3=C(C(=O)NOCC#N)CCC3)c(F)c2)c1 [Example 4/3] | 1000 to 10000 | 10000 to 25000 | – | –
[2H]C([2H])([2H])Oc1cccc(-c2c(F)c(F)c(NC(=O)c3ccoc3C(=O)NOC)c(F)c2F)c1 [Example 10/1] | – | < 1000 | < 100 | –
[2H]C([2H])([2H])Oc1cccc(-c2cc(F)c(NC(=O)c3ccsc3C(=O)NOC)c(F)c2F)c1 [9/5] | – | < 1000 | < 100 | –
[2H]C([2H])([2H])Oc1cccc(-c2c(F)c(F)c(NC(=O)C3=C(C(=O)NOCCO)CC(F)(F)C3)c(F)c2F)c1 [4/29] | – | < 1000 | < 100 | –
[2H]C([2H])([2H])ONC(=O)c1sccc1C(=O)Nc1c(F)cc(-c2cccc(OC([2H])([2H])[2H])c2)cc1F [9/2] | – | < 1000 | < 100 | –
[2H]C([2H])([2H])Oc1cccc(-c2ccc(NC(=O)C3=C(C(=O)NOCCO)CCC3)c(F)c2)c1 [5/7] | – | – | > 10000 | –
[2H]C([2H])([2H])Oc1ccccc1-c1c(F)c(F)c(NC(=O)C2=C(C(=O)NS(N)(=O)=O)CCC2)c(F)c1F [2/4] | – | < 10000 | < 100 | –
[2H]C([2H])([2H])Oc1cccc(-c2c(F)c(F)c(NC(=O)C3=C(C(=O)NS(C)(=O)=O)COC3)c(F)c2F)c1 [1/10] | 100 to 1000 | – | – | –
[2H]C([2H])([2H])C([2H])([2H])Oc1cccc(-c2cc(F)c(NC(=O)C3=C(C(=O)NS(C)(=O)=O)CCC3)c(F)c2)c1 [1/5] | – | < 10000 | < 100 | –
[2H]C([2H])([2H])Oc1cccc(-c2cc(F)c(NC(=O)C3=C(c4noc(=O)[nH]4)CCC3)c(F)c2)c1 [Example 3-2, N-(3,5-Difluoro-3′-(methoxy-d3)-[1,1′-biphenyl]-4-yl)-2-(5-oxo-4,5-dihydro-1,2,4-oxadiazol-3-yl)cyclopent-1-ene-1-carboxamide] | – | < 10000 | > 10000 | –
[2H]C([2H])([2H])ONC(=O)C1=C(C(=O)Nc2c(F)c(F)c(-c3cccc(OC([2H])([2H])[2H])c3)c(F)c2F)CCC1 [4/22] | – | < 1000 | < 100 | –

Structure (SMILES) | IC50 [1] [nM] | EC50 [2] [nM] | IC50 [1, 3] [nM] | IC50 ([1]; matched pair comparison, read-out: DHODH IC50) [nM]
[2H]c1c([2H])c(-c2cccc(OC([2H])([2H])[2H])c2)c([2H])c(C([2H])([2H])[2H])c1NC(=O)C1=C(C(=O)NS(C)(=O)=O)CCC1 [1/8] | 1000 to 10000 | – | – | –
[2H]C([2H])([2H])Oc1cccc(-c2ccc(NC(=O)C3=C(C(=O)NOC)CCC3)n3ccnc23)c1 [4/8] | – | – | > 10000 | –
[2H]C([2H])([2H])Oc1cccc(-c2cc(F)c(NC(=O)C3=C(C(=O)NS(=O)(=O)N(C)C)CCC3)c(F)c2)c1 [2/2] | – | 10000 to 25000 | > 10000 | –
[2H]C([2H])([2H])Oc1cccc(-c2cc(F)c(NC(=O)C3=C(C(=O)NOC)CCC3)c(OC([2H])([2H])[2H])c2)c1 [8/2] | 1000 to 10000 | < 10000 | – | –
[2H]C([2H])([2H])Oc1cccc(-c2cc(F)c(NC(=O)C3=C(C(=O)NS(=O)(=O)NC)CCC3)c(F)c2)c1 [2/3] | 100 to 1000 | 10000 to 25000 | – | –
[2H]C([2H])([2H])Oc1cccc(-c2c(F)c(F)c(NC(=O)C3=C(C(=O)NOCCO)CSC3)c(F)c2F)c1 [6/2] | – | < 10000 | < 100 | –
[2H]C([2H])([2H])Oc1cccc(-c2c(F)c(F)c(NC(=O)c3sc(F)cc3C(=O)NOC)c(F)c2F)c1 [16/3] | – | – | < 100 | –
[2H]C([2H])([2H])Oc1cccc(-c2c(F)c(F)c(NC(=O)c3ncsc3C(=O)NOC)c(F)c2F)c1 [Example 16-1, N5-methoxy-N4-(2,3,5,6-tetrafluoro-3′-(methoxy-d3)-[1,1′-biphenyl]-4-yl)thiazole-4,5-dicarboxamide] | – | – | < 100 | –
[2H]c1c([2H])c(F)c([2H])c(-c2c(F)c(F)c(NC(=O)C3=C(C(=O)NOC([2H])([2H])[2H])COC3)c(F)c2F)c1[2H] [5/2] | 100 to 1000 | < 1000 | – | –
[2H]C([2H])([2H])Oc1cccc(-c2c(F)c(F)c(NC(=O)c3scnc3C(=O)NOC)c(F)c2F)c1 [Example 16-2, N4-methoxy-N5-(2,3,5,6-tetrafluoro-3′-(methoxy-d3)-[1,1′-biphenyl]-4-yl)thiazole-4,5-dicarboxamide] | 100 to 1000 | – | – | –
[2H]C([2H])([2H])ONC(=O)C1=C(C(=O)Nc2c(F)c(F)c(-c3cc(F)cc(OC([2H])([2H])[2H])c3)c(F)c2F)COC1 [5/16] | – | – | < 100 | –
[2H]C([2H])([2H])Oc1cccc(-c2cc(F)c(N(CC(=O)OC)C(=O)C3=C(C(=O)NOC)CCC3)c(F)c2)c1 [Example 14, Methyl N-(3,5-difluoro-3′-(methoxy-d3)-[1,1′-biphenyl]-4-yl)-N-(2-(methoxy-carbamoyl)cyclopent-1-ene-1-carbonyl)glycinate] | 1000 to 10000 | – | – | –
[2H]C([2H])([2H])Oc1ccccc1-c1c(F)c(F)c(NC(=O)C2=C(C(=O)NOC)CCC2)c(F)c1F [4/26] | – | < 1000 | < 100 | –
[2H]C([2H])([2H])Oc1cccc(-c2ccc(NC(=O)C3=C(C(=O)NOC)CCC3)c3c2CCC3)c1 [Example 8/1] | – | < 10000 | > 10000 | –
CONC(=O)C1=C(C(=O)Nc2c(F)cc(-c3cccc4c3OCO4)cc2F)CCC1 [4/13] | 1000 to 10000 | < 10000 | – | –
[2H]C([2H])([2H])ONC(=O)C1=C(C(=O)Nc2c(F)c(F)c(-c3ccccc3OC([2H])([2H])[2H])c(F)c2F)COC1 [5/10] | – | – | < 100 | –
[2H]C([2H])([2H])Oc1cccc(-c2ccc(NC(=O)C3=C(C(=O)NOC)CCC3)c3cnccc23)c1 [4/11] | – | 25000 to 50000 | > 10000 | –
[2H]C([2H])([2H])Oc1cccc(-c2cc(F)c(NC(=O)c3sccc3C(=O)NOC)c(F)c2)c1 [Example 10, N^2-(3,5-Difluoro-3′-(methoxy-d3)-[1,1′-biphenyl]-4-yl)-N^3-methoxythiophene-2,3-dicarboxamide] | < 100 | < 1000 | – | –
[2H]C([2H])([2H])Oc1cccc(-c2c(F)c(F)c(NC(=O)c3cscc3C(=O)NS(C)(=O)=O)c(F)c2F)c1 [1/14] | – | > 50000 | – | –
[2H]C([2H])([2H])Oc1cccc(C23CCC(NC(=O)C4=C(C(=O)NOC)CCC4)(CC2)CC3)c1 [4/24] | – | – | > 10000 | –
[2H]C([2H])([2H])Oc1cccc(-c2cc(F)c(N(CCO)C(=O)C3=C(C(=O)NOC)CCC3)c(F)c2)c1 [Example 15, N1-(3,5-Difluoro-3′-(methoxy-d3)-[1,1′-biphenyl]-4-yl)-N1-(2-hydroxyethyl)-N2-methoxy-cyclopent-1-ene-1,2-dicarboxamide] | – | – | > 10000 | –
CONC(=O)C1=C(C(=O)Nc2ccc(-c3cccc(OC)c3)cc2F)CCC1 [Example 4/33] | 1000 to 10000 | – | – | 2020
[2H]C([2H])([2H])Oc1cccc(-c2ccc(NC(=O)C3=C(C(=O)NS(C)(=O)=O)CCC3)c(F)c2)c1 [1/11] | 100 to 1000 | – | – | –
[2H]C([2H])([2H])ONC(=O)C1=C(C(=O)Nc2c(F)cc(-c3cccc(OC([2H])([2H])[2H])c3)cc2F)CCC1 [4/4] | – | < 10000 | – | –
[2H]C([2H])([2H])ONC(=O)C1=C(C(=O)Nc2c(F)c(F)c(-c3cccc(OC([2H])(C([2H])([2H])[2H])C([2H])([2H])[2H])c3)c(F)c2F)COC1 [5/15] | – | – | < 100 | –
